Experiments:
HepG2 = test: Antiproliferative activity against human HepG2 cells at 1 mg/ml after 72 hrs by MTT assay relative to control; format: functional
KYSE-150 cell line = test: Antiproliferative activity against human KYSE-150 cells assessed as cell viability at 1.5 mg/ml after 24 hrs by MTT assay relative to control; format: functional; settings: KYSE-150, 24 h, read-out: Activity
[1] = Growth inhibition of human GRC1 cells at 0.8 g/L after 48 hrs by MTT assay relative to control; format: functional; settings: read-out: GI
M21 = test: Growth inhibition of human M21 cells after 48 hrs by MTT assay; format: functional, cell-based; settings: M21, 48 h
HT-29 = test: Growth inhibition of human HT-29 cells at 2 ml/L after 48 hrs by MTT assay relative to control; format: functional
CCRF-CEM = test: Antiproliferative activity against human CCRF-CEM cells after 72 hrs by WST1 assay; format: functional, cell-based
PANC-1 = test: Induction of apoptosis in human PANC1 cells at 0.25 mg/ml by flow cytometry (reference value: 4.13%); format: functional
U-937 = test: Induction of apoptosis in human U937 cells after 24 hrs by Annexin V-FITC/propidium iodide staining based flow cytometry relative to control; format: functional
RD = test: Induction of apoptosis in human RD cells at 0.5 mg/ml after 24 hrs by Annexin V-FITC/propidium iodide staining based flow cytometry relative to control; format: functional

SMILES: O=C1CCC[C@@H]2[C@H]3CCCN4CCC[C@@H](CN12)[C@@H]34 [MATRINE]
- Activity (HepG2): 18.25%
- viability at 1500 µg/mL (KYSE-150 cell line): 64%
- inhibition of growth at 800 µg/mL [1]: 23.1%
- IC50 (M21): 3.1 mM
- growth inhibition (GI) (HT-29): 29.73%
- IC50 (CCRF-CEM): 9.63 mM
- Activity (PANC-1): 8.71%
- Activity (U-937): 37.2%
- Activity (RD): 22.8%
